The values below are quoted from earlier work in patent US12377034B2, “Method for dyeing keratinous material, comprising the use of an organosilicon compound, an effect pigment and a film-forming polymer II” (Henkel AG & Co. KGaA, priority 2019, dated 2025).

The conditions of the data set: for solubility in water: 25° C.

Take `O=[N+]([O-])c1cc([N+](=O)[O-])c2ccc(S(=O)(=O)O)cc2c1O` [Acid Yellow 9, 8-hydroxy-5,7-dinitro-2-naphthalenesulfonic acid]: the solubility in water entry is “above 40 g/L”.

Consider `CCN(Cc1cccc(S(=O)(=O)O)c1)c1ccc(C(=C2C=CC(=[N+](CC)Cc3cccc(S(=O)(=O)O)c3)C=C2)c2ccccc2S(=O)(=O)[O-])cc1` [Acid Blue 9], for which the solubility in water entry is recorded as “more than 20 % by weight”.

On to `O=S(=O)(O)c1ccc(N=Nc2c(O)ccc3ccccc23)cc1` [Acid Orange 7, 4-[(2-hydroxy-1-naphthyl)azo]benzene sulphonate], for which the solubility in water entry was “more than 7 g/L”. Turning to `O=C(O)C1=NN(c2ccc(S(=O)(=O)O)cc2)C(=O)C1N=Nc1ccc(S(=O)(=O)O)cc1` (stereo not shown) [Acid Yellow 23, 4,5-dihydro-5-oxo-1-(4-sulfophenyl)-4-((4-sulfophenyl)azo)-1H-pyrazole-3-carboxylic acid], the “solubility in water (in words)” value (at 25° C.) is “highly soluble”.
